This is an account of results in patent US20110294778A1, “HEPATITIS C INHIBITOR COMPOUNDS” (priority 2009, published 2011).

The term EC50 denotes the midpoint of the concentration-response curve.

Test [1] has as its system HCV genotype 1a (strain H77) subgenomic replicon with NS3 resistance mutation R155K in Huh-7 cells. Briefly: HCV replicon RNA replication assay (NS3 protease variants), genotype 1a R155K. The following applies: Hepatitis C virus, Huh-7, 72 h, read-out: R155K 1a EC50 (nM). In kind it is cell-based. For orientation: Replicon systems follow genome replication, usually without infectious particles.

The test system of test [2] is HCV genotype 1b (Con-1) subgenomic replicon with NS3 resistance mutation D168V in Huh-7 cells. Nature of the test: HCV replicon RNA replication assay (NS3 protease variants), genotype 1b D168V. In kind it is cell-based. The following applies: Hepatitis C virus, Huh-7, 72 h, read-out: D168V 1b EC50 (nM).

For `COc1ccc2c(O[C@@H]3C[C@H]4C(=O)N[C@]5(C(=O)NS(=O)(=O)C6CC6)C[C@H]5/C=C\CCCCC[C@H](NC(=O)c5cnn(C)n5)C(=O)N4C3)cc(OC(C)C)nc2c1C` [Compound 1013, (2R,6S,12Z,13aS,14aR,16aS)-N-(cyclopropylsulfonyl)-2-{[7-methoxy-8-methyl-2-(propan-2-yloxy)quinolin-4-yl]oxy}-6-{[(2-methyl-2H-1,2,3-triazol-4-yl)carbonyl]amino}-5,16-dioxo-1,2,3,6,7,8,9,10,11,13a,14,15,16,16a-tetradecahydrocyclopropa[e]pyrrolo[1,2-a][1,4]diazacyclopentadecine-14a(5H)-carboxamide], the values for the EC50 in test [1] and in test [2] were 7.8 nM and 0.52 nM, respectively.

As to `CCOc1cc(O[C@@H]2C[C@H]3C(=O)N[C@]4(C(=O)NS(=O)(=O)C5CC5)C[C@H]4/C=C\CCCCC[C@H](NC(=O)c4ccc(COC)s4)C(=O)N3C2)c2ccc(OC)c(C)c2n1` [Compound 1014, (2R,6S,12Z,13aS,14aR,16aS)-N-(cyclopropylsulfonyl)-2-[(2-ethoxy-7-methoxy-8-methylquinolin-4-yl)oxy]-6-({[5-(methoxymethyl)thiophen-2-yl]carbonyl}amino)-5,16-dioxo-1,2,3,6,7,8,9,10,11,13a,14,15,16,16a-tetradecahydrocyclopropa[e]pyrrolo[1,2-a][1,4]diazacyclopentadecine-14a(5H)-carboxamide], the EC50 in test [1] amounted to 8.3 nM; in test [2], 0.31 nM.

For `COc1ccc2c(O[C@@H]3C[C@H]4C(=O)N[C@]5(C(=O)NS(=O)(=O)C6CC6)C[C@H]5/C=C\CCCCC[C@H](NC(=O)c5ccn(C)n5)C(=O)N4C3)cc(OCC(F)(F)F)nc2c1C` [Compound 1015, (2R,6S,12Z,13aS,14aR,16aS)-N-(cyclopropylsulfonyl)-2-{[7-methoxy-8-methyl-2-(2,2,2-trifluoroethoxy)quinolin-4-yl]oxy}-6-{[(1-methyl-1H-pyrazol-3-yl)carbonyl]amino}-5,16-dioxo-1,2,3,6,7,8,9,10,11,13a,14,15,16,16a-tetradecahydrocyclopropa[e]pyrrolo[1,2-a][1,4]diazacyclopentadecine-14a(5H)-carboxamide], the EC50 was 8.2 nM in test [1] and 0.57 nM in test [2].

For the compound `CCOc1cc(O[C@@H]2C[C@H]3C(=O)N[C@]4(C(=O)NS(=O)(=O)C5CC5)C[C@H]4/C=C\CCCCC[C@H](NC(=O)c4ccn(C)n4)C(=O)N3C2)c2ccc(OC)c(Br)c2n1` [Compound 1017, (2R,6S,12Z,13aS,14aR,16aS)-2-[(8-bromo-2-ethoxy-7-methoxyquinolin-4-yl)oxy]-N-(cyclopropylsulfonyl)-6-{[(1-methyl-1H-pyrazol-3-yl)carbonyl]amino}-5,16-dioxo-1,2,3,6,7,8,9,10,11,13a,14,15,16,16a-tetradecahydrocyclopropa[e]pyrrolo[1,2-a][1,4]diazacyclopentadecine-14a(5H)-carboxamide], the EC50 in test [1] was determined as 9.5 nM; in test [2], 1.1 nM.

Consider `COc1ccc2c(O[C@@H]3C[C@H]4C(=O)N[C@]5(C(=O)NS(=O)(=O)C6(C)CC6)C[C@H]5/C=C\CCCCC[C@H](NC(=O)c5ccn(C(F)F)n5)C(=O)N4C3)cc(OC(C)C)nc2c1C` [Compound 1018, (2R,6S,12Z,13aS,14aR,16aS)-6-({[1-(difluoromethyl)-1H-pyrazol-3-yl]carbonyl}amino)-2-{[7-methoxy-8-methyl-2-(propan-2-yloxy)quinolin-4-yl]oxy}-N-[(1-methylcyclopropyl)sulfonyl]-5,16-dioxo-1,2,3,6,7,8,9,10,11,13a,14,15,16,16a-tetradecahydrocyclopropa[e]pyrrolo[1,2-a][1,4]diazacyclopentadecine-14a(5H)-carboxamide], for which the EC50 in test [1] is 2.4 nM; in test [2] it was 0.14 nM.

Turning to `CCn1ccc(C(=O)N[C@H]2CCCCC/C=C\[C@@H]3C[C@@]3(C(=O)NS(=O)(=O)C3(C)CC3)NC(=O)[C@@H]3C[C@@H](Oc4cc(OC(C)C)nc5c(C)c(OC)ccc45)CN3C2=O)n1` [Compound 1019, (2R,6S,12Z,13aS,14aR,16aS)-6-{[(1-ethyl-1H-pyrazol-3-yl)carbonyl]amino}-2-{[7-methoxy-8-methyl-2-(propan-2-yloxy)quinolin-4-yl]oxy}-N-[(1-methylcyclopropyl)sulfonyl]-5,16-dioxo-1,2,3,6,7,8,9,10,11,13a,14,15,16,16a-tetradecahydrocyclopropa[e]pyrrolo[1,2-a][1,4]diazacyclopentadecine-14a(5H)-carboxamide], the EC50 in test [1] stood at 0.88 nM; in test [2], 0.16 nM.

Consider `COc1ccc2c(O[C@@H]3C[C@H]4C(=O)N[C@]5(C(=O)NS(=O)(=O)C6(C)CC6)C[C@H]5/C=C\CCCCC[C@H](NC(=O)c5ccn(CC(C)C)n5)C(=O)N4C3)cc(OC(C)C)nc2c1C` [Compound 1020, (2R,6S,12Z,13aS,14aR,16aS)-2-{[7-methoxy-8-methyl-2-(propan-2-yloxy)quinolin-4-yl]oxy}-N-[(1-methylcyclopropyl)sulfonyl]-6-({[1-(2-methylpropyl)-1H-pyrazol-3-yl]carbonyl}amino)-5,16-dioxo-1,2,3,6,7,8,9,10,11,13a,14,15,16,16a-tetradecahydrocyclopropa[e]pyrrolo[1,2-a][1,4]diazacyclopentadecine-14a(5H)-carboxamide], for which the values for the EC50 in test [1] and in test [2] were 3.1 nM and 0.23 nM, respectively.

Regarding `COc1ccc2c(O[C@@H]3C[C@H]4C(=O)N[C@]5(C(=O)NS(=O)(=O)C6(C)CC6)C[C@H]5/C=C\CCCCC[C@H](NC(=O)c5ccn(C(C)C)n5)C(=O)N4C3)cc(OC(C)C)nc2c1C` [Compound 1021, (2R,6S,12Z,13aS,14aR,16aS)-2-{[7-methoxy-8-methyl-2-(propan-2-yloxy)quinolin-4-yl]oxy}-N-[(1-methylcyclopropyl)sulfonyl]-5,16-dioxo-6-({[1-(propan-2-yl)-1H-pyrazol-3-yl]carbonyl}amino)-1,2,3,6,7,8,9,10,11,13a,14,15,16,16a-tetradecahydrocyclopropa[e]pyrrolo[1,2-a][1,4]diazacyclopentadecine-14a(5H)-carboxamide], the EC50 in test [1] was 4.3 nM; in test [2], 0.24 nM.

Regarding `COc1ccc2c(O[C@@H]3C[C@H]4C(=O)N[C@]5(C(=O)NS(=O)(=O)C6(C)CC6)C[C@H]5/C=C\CCCCC[C@H](NC(=O)c5ccn(C)n5)C(=O)N4C3)cc(OC3CCC3)nc2c1C` [Compound 1022, (2R,6S,12Z,13aS,14aR,16aS)-2-{[2-(cyclobutyloxy)-7-methoxy-8-methylquinolin-4-yl]oxy}-N-[(1-methylcyclopropyl)sulfonyl]-6-{[(1-methyl-1H-pyrazol-3-yl)carbonyl]amino}-5,16-dioxo-1,2,3,6,7,8,9,10,11,13a,14,15,16,16a-tetradecahydrocyclopropa[e]pyrrolo[1,2-a][1,4]diazacyclopentadecine-14a(5H)-carboxamide], the figures for the half-maximal effective concentration (EC50) in test [1] and in test [2] were 6.8 nM and 0.24 nM, respectively.
